We go through three molecules from article PMC9218960 (ACS infectious diseases, 2020).

What all share (type): cell-based
Assay [1] has as its target T1, WT PfENT1 (Plasmodium falciparum, UniProt Q8IDM6).
T1 sequence (Q8IDM6 1-422): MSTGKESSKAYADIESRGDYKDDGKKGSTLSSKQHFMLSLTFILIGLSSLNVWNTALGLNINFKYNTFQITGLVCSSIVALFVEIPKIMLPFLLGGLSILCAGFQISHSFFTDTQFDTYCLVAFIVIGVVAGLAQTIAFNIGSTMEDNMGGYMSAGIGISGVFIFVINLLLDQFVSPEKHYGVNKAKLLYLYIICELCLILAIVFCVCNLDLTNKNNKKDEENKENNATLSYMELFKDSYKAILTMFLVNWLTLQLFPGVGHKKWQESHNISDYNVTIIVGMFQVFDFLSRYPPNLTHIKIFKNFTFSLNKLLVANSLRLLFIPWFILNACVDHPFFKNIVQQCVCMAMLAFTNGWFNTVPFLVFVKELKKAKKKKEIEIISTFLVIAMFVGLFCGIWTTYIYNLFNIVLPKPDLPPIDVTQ
Kind of assay: [3H]uridine uptake inhibition by purines in PfENT1-expressing yeast.

Assay [2] deals with T2, PfENT1 L197F (Plasmodium falciparum, UniProt Q8IDM6, L197F).
T2 sequence (Q8IDM6 1-422 L197F): T1 sequence (Q8IDM6 1-422) with L197F
The assay is described as follows: [3H]uridine uptake inhibition by purines in PfENT1-SNP-expressing yeast.

For assay [3], the target named is T3, PfENT1 Q284E (Plasmodium falciparum, UniProt Q8IDM6, Q284E).
T3 sequence (Q8IDM6 1-422 Q284E): T1 sequence (Q8IDM6 1-422) with Q284E
Described as above.

Assay [4] concerns the target T4, PfENT1 A351S (Plasmodium falciparum, UniProt Q8IDM6, A351S).
T4 sequence (Q8IDM6 1-422 A351S): T1 sequence (Q8IDM6 1-422) with A351S
The description is as above.

The target in assay [5] is T5, PfENT1 F394L (Plasmodium falciparum, UniProt Q8IDM6, F394L).
T5 sequence (Q8IDM6 1-422 F394L): T1 sequence (Q8IDM6 1-422) with F394L
The assay is described as above.

Assay [6] has as its target T6, PfENT1 F36S/V129I (Plasmodium falciparum, UniProt Q8IDM6, F36S/V129I).
T6 sequence (Q8IDM6 1-422 F36S/V129I): T1 sequence (Q8IDM6 1-422) with F36S, V129I
The description is as above.

Substitutions are numbered along the chain they refer to.

Turning to `Nc1ncnc2nc[nH]c12` [Adenine, adenine], the half-maximal inhibitory concentration (IC50) in assay [1] turned out to be 475 ± 124 µM; in assay [2], 46 ± 5 µM; in assay [3] it was 1070 ± 128 µM; in assay [4], 1240 ± 142 µM; in assay [5], 1500 ± 227 µM; in assay [6], 333 ± 32 µM.

Turning to `O=c1[nH]cnc2nc[nH]c12` [Hypoxanthine, hypoxanthine], the IC50 in assay [1] stood at 178 ± 44 µM; in assay [2], 282 ± 8 µM; in assay [3] it was 566 ± 133 µM; in assay [4], 576 ± 270 µM; in assay [5], 837 ± 93 µM; in assay [6] it was 107 ± 5 µM.

`OC[C@H]1O[C@@H](n2cnc3c(O)ncnc32)[C@H](O)[C@@H]1O` [Inosine, inosine]: the 50% inhibitory concentration (IC50) in assay [1] turned out to be 20 ± 7 µM; in assay [2] it was 37 ± 12 µM; in assay [3], 18 ± 6 µM; in assay [4] it was 26 ± 9 µM; in assay [5], 94 ± 29 µM; in assay [6] it was 14 ± 2 µM.
